Data from patent US20250388544A1, “HETEROAROMATIC INHIBITORS OF ASTACIN PROTEINASES” (VIVORYON THERAPEUTICS N.V., priority 2019, published 2025).
pIC50, pKi: −log10 of the molar value.

Legend:
Assay type in all cases: biochemical
[1] = target: T1, hMeprin α (Homo sapiens, UniProt Q16819); test: Enzymatic assay, quenched peptide substrate cleavage, method A; settings: geometric mean (geometric SD factor in parentheses), read-out: Meprin alpha IC50
T1 sequence (Q16819 66-746): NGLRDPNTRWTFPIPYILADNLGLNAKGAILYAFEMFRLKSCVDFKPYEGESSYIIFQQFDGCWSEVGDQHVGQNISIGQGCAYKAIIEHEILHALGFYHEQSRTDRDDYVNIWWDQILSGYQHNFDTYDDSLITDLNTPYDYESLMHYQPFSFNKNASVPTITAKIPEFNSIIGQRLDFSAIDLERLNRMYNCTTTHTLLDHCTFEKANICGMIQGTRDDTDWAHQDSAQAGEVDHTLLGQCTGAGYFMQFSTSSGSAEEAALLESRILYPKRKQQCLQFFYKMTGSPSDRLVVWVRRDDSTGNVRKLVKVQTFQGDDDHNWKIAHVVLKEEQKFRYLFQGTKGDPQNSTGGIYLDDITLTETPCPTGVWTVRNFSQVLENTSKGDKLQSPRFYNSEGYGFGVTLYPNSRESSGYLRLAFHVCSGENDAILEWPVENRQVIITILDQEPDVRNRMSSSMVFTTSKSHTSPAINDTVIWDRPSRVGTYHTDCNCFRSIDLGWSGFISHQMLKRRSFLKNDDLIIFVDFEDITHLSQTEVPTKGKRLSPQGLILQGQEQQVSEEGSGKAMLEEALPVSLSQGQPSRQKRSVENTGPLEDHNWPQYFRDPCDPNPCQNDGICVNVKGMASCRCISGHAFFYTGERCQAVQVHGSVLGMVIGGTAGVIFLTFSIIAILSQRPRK
Method: (§1) The determination of enzymatic activity was based on the cleavage of internally quenched peptide substrates. A typical assay of 250 μl total volume measured in black 96 well plates consisted of 100 μl buffer, 50 μl enzyme at a final concentration of 5e-8 M to 2e-10 M, 50 μl substrate (0.15 to 80 μM, in buffer, 0.5% DMSO) and 50 μl inhibitor solution (in buffer, 1% DMSO). In case of 125 μl assay volume (black 96 half area well plates) all volumes were cut in half. Enzymatic activity of ADAMs was measured in 384 well plates with 60 μl total assay volume consisting of 20 μl inhibitor, 20 μl buffer, 10 μl enzyme and 10 μl substrate.
(§2) Based on method B Ki^(app) values were determined using Morrison's equation. All measurements were performed using a fluorescence plate reader (FLUOSTAR OPTIMA, BMG Labtech) at 30° C. The kinetic parameters were determined at least in duplicates on separate days. The excitation/emission wavelength was 340/420 nm. The kinetic data was evaluated using GRAFIT software (version 7.0.3, Erithacus Software).

[2] = target: T2, hMeprin β (Homo sapiens, UniProt Q16820); test: as above; settings: geometric mean (geometric SD factor in parentheses), read-out: Meprin beta IC50
T2 sequence (Q16820 62-701): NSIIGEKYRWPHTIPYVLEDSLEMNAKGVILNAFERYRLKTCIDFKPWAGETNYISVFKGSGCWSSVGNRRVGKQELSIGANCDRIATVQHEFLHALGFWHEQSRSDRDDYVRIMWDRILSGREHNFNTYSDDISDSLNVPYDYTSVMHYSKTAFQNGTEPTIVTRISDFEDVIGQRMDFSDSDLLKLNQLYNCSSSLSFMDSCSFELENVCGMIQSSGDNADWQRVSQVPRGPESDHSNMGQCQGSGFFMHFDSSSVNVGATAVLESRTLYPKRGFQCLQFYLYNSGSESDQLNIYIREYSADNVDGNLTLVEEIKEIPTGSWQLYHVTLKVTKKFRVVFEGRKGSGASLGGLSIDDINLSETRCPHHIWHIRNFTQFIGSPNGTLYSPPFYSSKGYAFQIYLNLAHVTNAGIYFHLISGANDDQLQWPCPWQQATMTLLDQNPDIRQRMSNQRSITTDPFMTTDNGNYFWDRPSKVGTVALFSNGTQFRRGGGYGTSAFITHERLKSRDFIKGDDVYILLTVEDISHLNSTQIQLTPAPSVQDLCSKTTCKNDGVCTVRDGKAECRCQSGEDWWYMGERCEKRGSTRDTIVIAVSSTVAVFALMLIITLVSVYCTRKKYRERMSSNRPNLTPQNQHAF
Method: as §1, §2

[3] = target: T1, hMeprin α; test: Enzymatic assay, quenched peptide substrate cleavage, method B; settings: geometric mean (geometric SD factor in parentheses); for pKi: Morrison's equation, read-out: Meprin alpha Ki(app); for pIC50: read-out: Meprin alpha IC50
Method: as §1, §2

[4] = target: T2, hMeprin β; test: as above; settings: geometric mean (geometric SD factor in parentheses); for pKi: Morrison's equation, read-out: Meprin beta Ki(app); for pIC50: read-out: Meprin beta IC50
Method: as §1, §2

[5] = target: T3, hMMP 9 (Homo sapiens, UniProt P14780); test: Residual enzyme activity of other metalloproteases; settings: read-out: Residual enzyme activity MMP9
T3 construct: purchased R&D systems
Method: as §1
MMPs were activated prior to measurement by APMA (p-aminophenylmercuric acetate) treatment according to manufacturer's instructions (R&D systems).

[6] = target: T4, hADAM 10 (Homo sapiens, UniProt O14672); test: Residual enzyme activity of other metalloproteases; settings: read-out: Residual enzyme activity ADAM10
T4 construct: purchased R&D systems
T4 sequence (O14672 214-748): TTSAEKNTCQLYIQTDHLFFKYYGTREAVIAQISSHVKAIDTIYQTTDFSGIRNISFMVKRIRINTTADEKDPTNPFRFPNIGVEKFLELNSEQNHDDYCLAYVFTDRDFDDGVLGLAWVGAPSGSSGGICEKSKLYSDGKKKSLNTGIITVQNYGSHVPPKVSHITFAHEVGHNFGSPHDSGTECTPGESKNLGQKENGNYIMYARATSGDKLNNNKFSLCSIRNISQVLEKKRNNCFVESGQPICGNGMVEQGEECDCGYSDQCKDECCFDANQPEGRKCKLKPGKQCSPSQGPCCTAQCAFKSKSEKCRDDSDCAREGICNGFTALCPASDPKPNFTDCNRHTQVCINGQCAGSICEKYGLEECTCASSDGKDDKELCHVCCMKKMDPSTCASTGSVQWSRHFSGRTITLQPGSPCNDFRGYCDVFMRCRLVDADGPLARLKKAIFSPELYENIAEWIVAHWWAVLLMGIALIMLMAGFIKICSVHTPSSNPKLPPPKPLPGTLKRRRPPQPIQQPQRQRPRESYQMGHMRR
Method: as §1

[7] = target: T5, hADAM 17 (Homo sapiens, UniProt P78536); test: Residual enzyme activity of other metalloproteases; settings: read-out: Residual enzyme activity ADAM17
T5 construct: purchased R&D systems
Method: as §1

T5 sequence (P78536 215-824): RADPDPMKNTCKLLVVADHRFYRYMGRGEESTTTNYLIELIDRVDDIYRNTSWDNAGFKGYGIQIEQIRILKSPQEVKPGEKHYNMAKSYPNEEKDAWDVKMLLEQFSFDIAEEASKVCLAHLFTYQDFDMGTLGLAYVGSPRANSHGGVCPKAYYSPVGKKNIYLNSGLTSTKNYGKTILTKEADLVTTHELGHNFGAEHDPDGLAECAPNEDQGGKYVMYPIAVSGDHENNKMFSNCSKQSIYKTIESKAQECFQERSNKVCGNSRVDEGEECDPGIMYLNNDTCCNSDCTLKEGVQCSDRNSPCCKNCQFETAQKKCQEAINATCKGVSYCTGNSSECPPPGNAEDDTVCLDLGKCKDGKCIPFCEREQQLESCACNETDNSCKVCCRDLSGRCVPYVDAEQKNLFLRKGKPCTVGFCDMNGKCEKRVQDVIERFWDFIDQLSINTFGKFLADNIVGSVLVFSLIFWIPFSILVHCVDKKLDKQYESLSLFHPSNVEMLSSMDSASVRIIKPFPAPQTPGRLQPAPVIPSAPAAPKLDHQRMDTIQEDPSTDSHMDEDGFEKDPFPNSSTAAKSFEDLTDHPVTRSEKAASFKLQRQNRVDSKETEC
T3 sequence (P14780 107-707 limits assumed): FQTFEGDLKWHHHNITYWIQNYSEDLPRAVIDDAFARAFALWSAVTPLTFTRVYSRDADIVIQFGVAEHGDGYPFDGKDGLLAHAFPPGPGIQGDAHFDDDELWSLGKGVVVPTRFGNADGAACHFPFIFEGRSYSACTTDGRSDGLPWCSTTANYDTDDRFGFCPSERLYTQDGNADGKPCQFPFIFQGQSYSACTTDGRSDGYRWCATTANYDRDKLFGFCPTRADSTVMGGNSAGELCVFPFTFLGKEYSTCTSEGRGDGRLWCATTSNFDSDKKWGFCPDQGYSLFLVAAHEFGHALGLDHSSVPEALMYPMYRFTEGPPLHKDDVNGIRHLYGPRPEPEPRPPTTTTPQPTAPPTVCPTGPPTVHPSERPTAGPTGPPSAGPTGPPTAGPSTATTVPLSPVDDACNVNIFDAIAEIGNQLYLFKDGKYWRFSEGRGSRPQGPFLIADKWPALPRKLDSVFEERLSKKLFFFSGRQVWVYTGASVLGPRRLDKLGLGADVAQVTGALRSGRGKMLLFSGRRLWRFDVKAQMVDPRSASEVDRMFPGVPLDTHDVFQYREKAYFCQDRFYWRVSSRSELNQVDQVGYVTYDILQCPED

O=C(CNc1c(-c2ccc3c(c2)OCCO3)nc2ccccn12)NO [Example 32, 2-[[2-(2,3-Dihydro-1,4-benzodioxin-6-yl)imidazo-[1,2-a]pyridin-3-yl]amino]ethanehydroxamic acid]
pIC50 [1]: 6.18 | pIC50 [2]: 5.50

O=C(Cc1c(-c2ccccc2)nnn1-c1ccccc1)NO [Example 11, 2-(3,5-Diphenyltriazol-4-yl)ethanehydroxamic acid]
pIC50 [1]: 7.96 | pIC50 [2]: 5.84

Cn1nc(-c2ccccc2)c(CC(=O)NO)c1-c1ccccc1 [Example 35, 2-(1-Methyl-3,5-diphenyl-pyrazol-4-yl)ethanehydroxamic acid]
pIC50 [1]: 8.05 | pIC50 [2]: 5.91

COc1ccc(-c2n[nH]c(-c3ccccc3)c2CC(=O)NO)cc1 [Example 48, 2-[3-(4-Methoxyphenyl)-5-phenyl-1H-pyrazol-4-yl]ethanehydroxamic acid]
pKi [3]: 9.00 | pIC50 [3]: 9.00 | pKi [4]: 7.21 | pIC50 [4]: 7.19

O=C(Cc1c(-c2cccc(C(=O)O)c2)[nH]nc1[C@H]1CC[C@H](C(=O)O)CC1)NO [Example 78, trans-3-[3-(4-Carboxycyclohexyl)-4-[2-(hydroxyamino)-2-oxo-ethyl]-1H-pyrazol-5-yl]benzoic acid]
pKi [3]: 7.70 | pIC50 [3]: 7.70 | pKi [4]: 7.68 | pIC50 [4]: 7.68

N#Cc1cccc(-c2n[nH]c(-c3ccccc3)c2CC(=O)NO)c1 [Example 55, 2-[3-(3-Cyanophenyl)-5-phenyl-1H-pyrazol-4-yl]ethanehydroxamic acid]
pKi [3]: 8.30 | pIC50 [3]: 8.30 | pKi [4]: 6.47 | pIC50 [4]: 6.46

O=C(Cc1c(-c2ccc(Cl)c(O)c2F)n[nH]c1-c1ccccc1)NO [Example 53, 2-[3-(4-Chloro-2-fluoro-3-hydroxy-phenyl)-5-phenyl-1H-pyrazol-4-yl]ethanehydroxamic acid]
pKi [3]: 8.70 | pIC50 [3]: 8.52 | pKi [4]: 7.21 | pIC50 [4]: 7.21

O=C(Cc1c(-c2ccc3c(c2)OCO3)n[nH]c1-c1ccc2c(c1)OCO2)NO [Example 57, 2-[3,5-Bis(1,3-benzodioxol-5-yl)-1H-pyrazol-4-yl]ethanehydroxamic acid]
pKi [3]: 9.19 | pIC50 [3]: 9.14 | pKi [4]: 6.95 | pIC50 [4]: 6.92 | remaining activity at 10 µM ([5]; 10 μM inhibitor): 63% | remaining activity at 200 µM ([5]; 200 μM inhibitor): 10% | remaining activity at 10 µM ([6]; 10 μM inhibitor): 62% | remaining activity at 200 µM ([6]; 200 μM inhibitor): 0% | remaining activity at 10 µM ([7]; 10 μM inhibitor): 57% | remaining activity at 200 µM ([7]; 200 μM inhibitor): 4%

O=C(Cc1c(-c2ccc3c(c2)OCO3)n[nH]c1-c1ccc(C(=O)O)cc1)NO [Example 62, 4-[3-(1,3-Benzodioxol-5-yl)-4-[2-(hydroxyamino)-2-oxo-ethyl]-1H-pyrazol-5-yl)benzoic acid]
pKi [3]: 8.00 | pIC50 [3]: 7.96 | pKi [4]: 7.03 | pIC50 [4]: 7.03

O=C(Cc1c(C2CCCC2)n[nH]c1-c1ccccc1)NO [Example 45, 2-(3-Cyclopentyl-5-phenyl-1H-pyrazol-4-yl)ethanehydroxamic acid]
pKi [3]: 8.22 | pIC50 [3]: 8.22 | pKi [4]: 6.49 | pIC50 [4]: 6.49

O=C(Cc1c(Cc2ccccc2)n[nH]c1-c1ccccc1)NO [Example 46, 2-(3-Benzyl-5-phenyl-1H-pyrazol-4-yl)ethanehydroxamic acid]
pKi [3]: 7.15 | pIC50 [3]: 7.15 | pKi [4]: 5.76 | pIC50 [4]: 5.75

COc1ccc(-c2nc3ccccc3n2CC(=O)NO)cc1 [Example 15, 2-[2-(4-Methoxyphenyl)benzimidazol-1-yl]ethanehydroxamic acid]
pKi [3]: 7.03 | pIC50 [3]: 7.02 | pKi [4]: 6.60 | pIC50 [4]: 6.59

O=C(Cc1c([C@@H]2CCCC[C@@H]2C(=O)O)n[nH]c1-c1ccccc1)NO [Example 73, (1S,2R)-2-[4-[2-(Hydroxyamino)-2-oxoethyl]-5-phenyl-1H-pyrazol-3-yl]cyclohexanecarboxylic acid]
pKi [3]: 9.59 | pIC50 [3]: 9.47 | pKi [4]: 7.48 | pIC50 [4]: 7.48

O=C(Cc1c(-c2ccc(C(=O)O)cc2)n[nH]c1-c1cccc(C(=O)O)c1)NO [Example 66, 3-[3-(4-Carboxyphenyl)-4-[2-(hydroxyamino)-2-oxo-ethyl]-1H-pyrazol-5-yl]benzoic acid]
pKi [3]: 7.70 | pIC50 [3]: 7.68 | pKi [4]: 7.49 | pIC50 [4]: 7.49

Cc1n[nH]c(-c2ccccc2)c1CC(=O)NO [Example 44, 2-(3-Methyl-5-phenyl-1H-pyrazol-4-yl)ethanehydroxamic acid]
pKi [3]: 6.52 | pIC50 [3]: 6.51 | pKi [4]: 5.68 | pIC50 [4]: 5.66

O=C(Cc1c(-c2cccc(C(=O)O)c2)[nH]nc1[C@H]1CC[C@@H](C(=O)O)CC1)NO [Example 77, cis-3-[3-(4-carboxycyclohexyl)-4-[2-(hydroxyamino)-2-oxo-ethyl]-1H-pyrazol-5-yl]benzoic acid]
pKi [3]: 7.64 | pIC50 [3]: 7.62 | pKi [4]: 7.82 | pIC50 [4]: 7.82

O=C(Cc1c(-c2ccc(C(=O)O)cc2)n[nH]c1-c1ccccc1)NO [Example 52, 4-[4-[2-(Hydroxyamino)-2-oxo-ethyl]-5-phenyl-1H-pyrazol-3-yl]benzoic acid]
pKi [3]: 7.77 | pIC50 [3]: 7.74 | pKi [4]: 6.94 | pIC50 [4]: 6.89

O=C(Cc1c(-c2cccc(C(=O)O)c2)n[nH]c1-c1cccc(C(=O)O)c1)NO [Example 58, 3-[3-(3-Carboxyphenyl)-4-[2-(hydroxyamino)-2-oxo-ethyl]-1H-pyrazol-5-yl]benzoic acid]
pKi [3]: 8.00 | pIC50 [3]: 7.96 | pKi [4]: 7.85 | pIC50 [4]: 7.77
